Measurements published in ChEMBL document CHEMBL3351570, “Design and synthesis of 2-phenylnaphthalenoids as inhibitors of DNA topoisomeraseIIα and antitumor agents” (Eur J Med Chem, 2014).
Activity calls are given as the source filed them. No cut-off for these calls is given here.

Key:
[1] = tested on: HeLa; assay: Cytotoxicity against human HeLa cells after 72 hrs by sulforhodamine B assay; format: functional, cell-based
[2] = tested on: A549; assay: Cytotoxicity against human A549 cells after 72 hrs by sulforhodamine B assay; format: functional, cell-based; details: A549, 72 h
[3] = tested on: MDA-MB-231; assay: Cytotoxicity against human MDA-MB-231 cells after 72 hrs by sulforhodamine B assay; format: functional, cell-based; details: MDA-MB-231, 72 h
[4] = molecular target: DNA topoisomerase 2-alpha (Homo sapiens) (UniProt P11388); assay: Inhibition of human recombinant topoisomerase 2alpha assessed as reduction in kDNA decatenation at 100 uM incubated for 30 mins by DNA gel electrophoresis
DNA topoisomerase 2-alpha (Homo sapiens), sequence (P11388 whole entry): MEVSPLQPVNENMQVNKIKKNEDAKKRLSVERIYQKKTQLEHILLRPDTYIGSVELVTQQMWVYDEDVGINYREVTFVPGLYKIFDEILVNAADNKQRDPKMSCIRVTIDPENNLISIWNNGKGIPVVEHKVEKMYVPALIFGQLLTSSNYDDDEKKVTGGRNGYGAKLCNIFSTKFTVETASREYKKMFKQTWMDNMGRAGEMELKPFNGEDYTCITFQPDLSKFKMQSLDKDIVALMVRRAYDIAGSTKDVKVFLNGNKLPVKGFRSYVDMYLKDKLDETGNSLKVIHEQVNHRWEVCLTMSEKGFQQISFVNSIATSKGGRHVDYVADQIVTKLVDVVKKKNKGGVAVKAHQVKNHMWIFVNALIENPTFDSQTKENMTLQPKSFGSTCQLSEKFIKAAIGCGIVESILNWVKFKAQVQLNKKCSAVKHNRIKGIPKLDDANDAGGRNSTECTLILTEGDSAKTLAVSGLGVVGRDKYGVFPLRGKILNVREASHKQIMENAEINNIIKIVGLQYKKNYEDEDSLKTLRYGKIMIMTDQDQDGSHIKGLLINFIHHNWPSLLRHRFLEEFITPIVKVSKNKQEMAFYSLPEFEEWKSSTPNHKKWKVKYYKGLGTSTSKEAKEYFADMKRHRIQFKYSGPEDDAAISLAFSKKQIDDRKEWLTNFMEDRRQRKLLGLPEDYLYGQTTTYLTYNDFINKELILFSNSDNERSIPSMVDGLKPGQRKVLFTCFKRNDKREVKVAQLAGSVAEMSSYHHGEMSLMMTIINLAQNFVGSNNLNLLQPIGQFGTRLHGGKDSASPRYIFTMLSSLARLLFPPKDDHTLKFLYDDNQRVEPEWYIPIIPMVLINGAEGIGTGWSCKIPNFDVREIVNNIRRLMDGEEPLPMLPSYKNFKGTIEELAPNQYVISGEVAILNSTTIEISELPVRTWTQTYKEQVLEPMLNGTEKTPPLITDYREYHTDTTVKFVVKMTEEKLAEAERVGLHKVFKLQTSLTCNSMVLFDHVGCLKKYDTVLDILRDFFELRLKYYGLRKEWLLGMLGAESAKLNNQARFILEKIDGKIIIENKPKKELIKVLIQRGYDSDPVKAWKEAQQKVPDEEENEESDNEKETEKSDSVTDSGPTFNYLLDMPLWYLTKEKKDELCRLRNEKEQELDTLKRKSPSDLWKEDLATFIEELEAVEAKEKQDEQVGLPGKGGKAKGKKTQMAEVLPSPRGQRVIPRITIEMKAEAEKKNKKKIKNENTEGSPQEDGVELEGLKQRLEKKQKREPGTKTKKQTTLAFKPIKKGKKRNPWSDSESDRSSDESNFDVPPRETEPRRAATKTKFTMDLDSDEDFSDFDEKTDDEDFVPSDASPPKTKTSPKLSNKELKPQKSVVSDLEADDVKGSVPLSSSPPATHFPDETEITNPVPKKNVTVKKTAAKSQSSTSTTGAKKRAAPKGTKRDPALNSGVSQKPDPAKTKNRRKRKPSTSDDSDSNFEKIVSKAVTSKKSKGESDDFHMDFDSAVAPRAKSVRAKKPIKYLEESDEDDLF

[5] = molecular target: DNA topoisomerase 2-alpha (Homo sapiens) (UniProt P11388); assay: Inhibition of human recombinant topoisomerase 2alpha assessed as reduction in pBR322 DNA relaxation at 100 uM incubated for 30 mins by DNA gel electrophoresis
[6] = molecular target: T1, DNA topoisomerase (Bos taurus) (UniProt A0JN73); assay: Inhibition of calf thymus DNA topoisomerase 1 assessed as reduction in pBR322 DNA relaxation at 100 uM incubated for 30 mins by DNA gel electrophoresis
T1 sequence (whole entry): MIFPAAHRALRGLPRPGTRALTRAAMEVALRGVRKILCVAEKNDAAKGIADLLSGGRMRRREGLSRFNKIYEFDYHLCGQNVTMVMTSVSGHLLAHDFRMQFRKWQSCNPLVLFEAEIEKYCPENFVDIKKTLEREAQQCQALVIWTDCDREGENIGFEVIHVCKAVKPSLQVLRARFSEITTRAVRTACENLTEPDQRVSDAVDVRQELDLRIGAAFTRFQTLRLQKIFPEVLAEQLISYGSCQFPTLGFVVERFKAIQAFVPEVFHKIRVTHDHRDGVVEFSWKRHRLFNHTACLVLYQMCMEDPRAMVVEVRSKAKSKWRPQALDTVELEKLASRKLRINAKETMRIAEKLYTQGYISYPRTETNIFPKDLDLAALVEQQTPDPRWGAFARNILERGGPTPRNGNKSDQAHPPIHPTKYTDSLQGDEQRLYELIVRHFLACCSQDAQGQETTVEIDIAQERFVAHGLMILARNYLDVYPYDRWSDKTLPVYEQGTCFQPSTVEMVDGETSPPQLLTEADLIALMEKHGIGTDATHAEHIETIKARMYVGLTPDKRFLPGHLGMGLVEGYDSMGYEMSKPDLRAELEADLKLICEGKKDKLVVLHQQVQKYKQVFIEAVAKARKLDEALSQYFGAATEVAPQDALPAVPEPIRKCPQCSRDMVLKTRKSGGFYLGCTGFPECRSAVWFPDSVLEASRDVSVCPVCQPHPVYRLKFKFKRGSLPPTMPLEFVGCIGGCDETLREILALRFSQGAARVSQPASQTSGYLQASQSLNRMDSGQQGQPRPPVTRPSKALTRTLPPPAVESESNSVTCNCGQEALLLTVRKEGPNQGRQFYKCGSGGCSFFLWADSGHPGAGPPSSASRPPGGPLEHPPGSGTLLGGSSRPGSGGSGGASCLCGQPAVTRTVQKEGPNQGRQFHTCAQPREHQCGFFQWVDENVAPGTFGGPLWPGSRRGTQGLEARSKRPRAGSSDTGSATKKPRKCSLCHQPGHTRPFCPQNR

[7] = molecular target: DNA topoisomerase 2-alpha (Homo sapiens) (UniProt P11388); details: 100 uM
Description: Inhibition of human recombinant topoisomerase 2alpha assessed as increase in linear DNA using circular supercoiled plasmid DNA substrate at 100 uM incubated for 30 mins by ethidium bromide staining based DNA gel electrophoresis

[8] = tested on: MDA-MB-231; assay: Induction of DNA damage in human MDA-MB-231 cells assessed as increase in ATM S1981 phosphorylation at 10 uM after 24 hrs by Western blot method; format: functional, cell-based
[9] = tested on: MDA-MB-231; assay: Antitumor activity against human MDA-MB-231 cells xenografted in BALB/c-nu mouse assessed as reduction in tumor weight at 20 mg/kg, iv dosed every other day for 15 days; format: functional; details: MDA-MB-231, 360 h
[10] = tested on: MDA-MB-231; assay: Increase in histone H3 Ser10 phosphorylation in human MDA-MB-231 cells at 10 uM after 24 hrs by Western blot method; format: functional, cell-based
[11] = tested on: Mus musculus; assay: Toxicity in nude BALB/c mouse xenografted with human MDA-MB-231 cells assessed as reduction in body weight at 20 mg/kg, iv dosed every other day for 15 days (reference value: 24.2 g); format: organism-based; set-up: dose 20 mg/kg, route intravenous; details: in vivo, 360 h
[12] = tested on: Nucleic Acid; assay: Induction of DNA intercalation in Escherichia coli pBR322 DNA at 100 uM by DNA gel electrophoresis; format: nucleic-acid assay

| Structure (SMILES) | IC50 [1] [µM] | IC50 [2] [µM] | IC50 [3] [µM] | other results |
| --- | --- | --- | --- | --- |
| COC(=O)c1cc(-c2ccc3cc(OC)ccc3c2)ccc1O | > 20 | > 20 | 82.2 |  |
| O=C(O)c1ccc(-c2ccc3cc(O)ccc3c2)cc1O | 5.5 | 15.3 | 8.1 |  |
| COc1ccc2cc(-c3ccc(CCO)c(O)c3)ccc2c1 | > 20 | > 20 | 92 |  |
| COc1ccc2cc(-c3ccc(OC)c(C=O)c3)ccc2c1 | > 20 | > 20 | > 800 |  |
| COC(=O)Cc1cc(-c2ccc3cc(OC)ccc3c2)ccc1O | > 20 | > 20 | > 800 |  |
| COC(=O)c1ccc(-c2ccc3cc(OC)ccc3c2)cc1 | > 20 | > 20 | > 800 |  |
| COc1ccc2cc(-c3ccc(N)cc3)ccc2c1 | > 20 | > 20 | 168 |  |
| COc1ccc2cc(-c3cccc(CO)c3)ccc2c1 | 20 | > 20 | 19.9 |  |
| COC(=O)c1ccc(O)c(-c2ccc3cc(OC)ccc3c2)c1 | > 20 | > 20 | 36.5 |  |
| COc1ccc(-c2ccc3cc(O)ccc3c2)cc1OC | 4.8 | 20 | 16.8 |  |
| COc1ccc2cc(-c3ccc(O)cc3)ccc2c1 | > 20 | > 20 | > 800 |  |
| COc1ccc2cc(-c3ccc(OC)c(OC)c3)ccc2c1 | > 20 | > 20 | 112 |  |
| O=[N+]([O-])c1ccc(-c2ccc3cc(O)ccc3c2)cc1C(F)(F)F | 1.9 | 3.5 | 4.5 | inhibition [4]: Active; inhibition [5]: Active |
| COc1ccc2cc(-c3cc(C(C)=O)c(O)c([N+](=O)[O-])c3)ccc2c1 | > 20 | > 20 | 19.8 | inhibition [4]: Active |
| COc1ccc2cc(-c3cc(C=O)c(O)c(OC)c3)ccc2c1 | > 20 | > 20 | 61.8 |  |
| O=C(O)c1cc(-c2ccc3cc(O)ccc3c2)ccc1O | > 20 | > 20 | 31.5 |  |
| COc1ccc2cc(-c3ccc(N)c(C)c3)ccc2c1 | > 20 | > 20 | > 800 |  |
| O=C(O)Cc1cc(-c2ccc3cc(O)ccc3c2)ccc1O | > 20 | > 20 | > 800 |  |
| COc1ccc2cc(-c3ccc(C(F)(F)F)cc3)ccc2c1 | > 20 | > 20 | 54.9 |  |
| Cc1ccc(C(=O)O)c(-c2ccc3cc(O)ccc3c2)c1 | > 20 | > 20 | 94.3 | inhibition [4]: Active |
| Oc1ccc2cc(-c3ccc(O)c(O)c3)ccc2c1 | 4.6 | 11.5 | 4.3 | inhibition [4]: Active; inhibition [5]: Active |
| CC[C@@]1(O)C(=O)OCc2c1cc1n(c2=O)Cc2cc3ccccc3nc2-1 |  |  |  | inhibition [6]: Active |
| COc1ccc2cc(-c3ccc(C(C)O)cc3)ccc2c1 (stereo unspecified) | > 20 | > 20 | 69.8 |  |
| Nc1ccc(-c2ccc3cc(O)ccc3c2)cc1 | 3.1 | 19.8 | 18.2 |  |
| COC(=O)c1ccc(O)c(-c2ccc3cc(O)ccc3c2)c1 | 2.2 | 11.6 | 7.6 | inhibition [5]: Active |

| Structure (SMILES) | IC50 [1] [µM] | IC50 [2] [µM] | IC50 [3] [µM] | other results |
| --- | --- | --- | --- | --- |
| COC(=O)c1ccc(C)c(-c2ccc3cc(O)ccc3c2)c1 | 1.2 | 5 | 0.5 | inhibition [4]: Active; inhibition [5]: Active |
| O=Cc1ccc(O)c(-c2ccc3cc(O)ccc3c2)c1 | 5 | 10.5 | 3.2 | inhibition [4]: Active; inhibition [5]: Active |
| COc1ccc2cc(-c3cc(C=O)ccc3O)ccc2c1 | > 20 | 14.1 | 25.3 |  |
| COc1ccc2cc(-c3ccc(CO)cc3)ccc2c1 | 9.1 | 7.9 | 152 |  |
| COc1ccc2cc(-c3ccc(O)c(C(=O)O)c3)ccc2c1 | > 20 | > 20 | 93.3 |  |
| OCCc1cc(-c2ccc3cc(O)ccc3c2)ccc1O | 0.6 | 0.6 | 0.4 | inhibition [4]: Active; inhibition [6]: inactive; inhibition [5]: inactive |
| COC(=O)C(O)c1ccc(-c2ccc3cc(OC)ccc3c2)cc1 (stereo unspecified) | > 20 | > 20 | 24.2 |  |
| COC(=O)Cc1ccc(-c2ccc3cc(OC)ccc3c2)cc1 | > 20 | > 20 | 695 |  |
| OCc1ccc(-c2ccc3cc(O)ccc3c2)cc1 | 2.2 | > 20 | 29.5 |  |
| COc1ccc2cc(-c3ccc([N+](=O)[O-])c(C(F)(F)F)c3)ccc2c1 | > 20 | > 20 | 165 |  |
| CC(=O)c1cc(-c2ccc3cc(O)ccc3c2)cc([N+](=O)[O-])c1O | 2.1 | 4.2 | 1.4 | inhibition [4]: Active; inhibition [6]: Active; inhibition [5]: Active |
| O=Cc1cc(-c2ccc3cc(O)ccc3c2)ccc1O | 2.1 | 5 | 2.4 | inhibition [4]: Active; inhibition [6]: Active; inhibition [5]: Active |
| COc1cc(-c2ccc3cc(O)ccc3c2)cc(C=O)c1O | 1.8 | 1.1 | 0.5 | inhibition [4]: Active; inhibition [6]: Active; inhibition [5]: Active |
| CC(O)c1ccc(-c2ccc3cc(O)ccc3c2)cc1 (stereo unspecified) | 3.4 | 19.9 | 7.6 |  |
| Oc1ccc(-c2ccc3cc(O)ccc3c2)cc1 | 3.1 | 11.4 | 10.5 |  |
| Cc1cc(-c2ccc3cc(O)ccc3c2)ccc1N | 2.9 | 3.5 | 2.1 | inhibition [4]: Active; inhibition [5]: Active |
| COc1ccc2cc(-c3ccc(CC(=O)O)cc3)ccc2c1 | > 20 | > 20 | 272 |  |
| COC(=O)c1ccc(C)c(-c2ccc3cc(OC)ccc3c2)c1 | 20 | > 20 | > 800 | inhibition [4]: Active |
| COc1ccc2cc(-c3cccc(C(F)(F)F)c3)ccc2c1 | > 20 | > 20 | 455 |  |
| OCc1cccc(-c2ccc3cc(O)ccc3c2)c1 | 3.2 | 9.1 | 5 |  |
| COc1cc([C@@H]2c3cc4c(cc3[C@@H](O[C@@H]3O[C@@H]5CO[C@@H](C)O[C@H]5[C@H](O)[C@H]3O)[C@H]3COC(=O)[C@H]23)OCO4)cc(OC)c1O [ETOPOSIDE] | 4.36 | 13.8 | 3.67 | inhibition [7]: Active; Activity [8]: Active; inhibition in vivo at 20 mg/kg [9]: 69%; inhibition [5]: Active; Activity [10]: inactive; Activity [11]: 20.1 g |
| COC(=O)Cc1cc(-c2ccc3cc(O)ccc3c2)ccc1O |  |  | 98 |  |
| COc1ccc2cc(-c3ccc(OC(C)=O)c(COC(C)=O)c3)ccc2c1 | > 20 | > 20 | 81.8 |  |
| COC(=O)c1ccc(-c2ccc3cc(OC)ccc3c2)cc1O | > 20 | > 20 | 77.3 |  |
| COc1cccc2c1C(=O)c1c(O)c3c(c(O)c1C2=O)C[C@@](O)(C(=O)CO)C[C@@H]3O[C@H]1C[C@H](N)[C@H](O)[C@H](C)O1 |  |  |  | Activity [12]: Active |
